In paper PMC4980415 (Psychopharmacology, 2016):
Counter-ions that a name gives are not always drawn.

Key:
[1] = target: T1, NK3 (h), neurokinin (Homo sapiens, UniProt P29371); assay: Off-target binding, General SEP II panel; details: 10 μM ITI-214, mean of n = 2
T1 construct: Caliper Life Sciences (contract screen)
T1 sequence (P29371 1-465): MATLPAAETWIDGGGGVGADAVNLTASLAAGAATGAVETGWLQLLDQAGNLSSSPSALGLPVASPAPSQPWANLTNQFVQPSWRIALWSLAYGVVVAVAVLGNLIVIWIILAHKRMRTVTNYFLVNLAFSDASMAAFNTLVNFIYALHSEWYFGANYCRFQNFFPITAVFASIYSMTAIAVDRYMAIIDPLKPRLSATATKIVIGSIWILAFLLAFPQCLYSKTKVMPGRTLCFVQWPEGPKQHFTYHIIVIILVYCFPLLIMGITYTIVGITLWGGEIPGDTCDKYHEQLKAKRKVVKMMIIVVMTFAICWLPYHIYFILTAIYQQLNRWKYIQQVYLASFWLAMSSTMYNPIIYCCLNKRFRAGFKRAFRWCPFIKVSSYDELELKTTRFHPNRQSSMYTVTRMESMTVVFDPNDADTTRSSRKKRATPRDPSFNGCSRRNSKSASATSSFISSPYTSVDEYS

[2] = target: T2, DA transporter (h), dopamine (Homo sapiens, UniProt Q01959); assay: Off-target binding, General SEP II panel; details: 10 μM ITI-214, mean of n = 2
T2 construct: Caliper Life Sciences (contract screen)

[3] = system: Alpha 1 (non-selective), adrenergic; assay: Off-target binding, General SEP II panel; details: 10 μM ITI-214, mean of n = 2
[4] = system: Alpha 2 (non-selective), adrenergic; assay: Off-target binding, General SEP II panel; details: 10 μM ITI-214, mean of n = 2
[5] = target: T3, NK1 (h), neurokinin (Homo sapiens, UniProt P25103); assay: Off-target binding, General SEP II panel; details: 10 μM ITI-214, mean of n = 2
T3 construct: Caliper Life Sciences (contract screen)

[6] = system: memory acquisition in male Wistar rats; assay: Novel object recognition (NOR): acquisition, drug 2 h before T1; type: in vivo, rat; details: for Exploration time e1 (T1) / Exploration time e2 (T2): 2 h before T1, 24 h interval
Experimental: (§1) The drug was administered, per os (po), by gavage to rats in a volume of 2 ml/kg body weight. Oral dosing solutions were prepared fresh daily. […] The pH of the dosing solution was adjusted to ~pH 5.5 by dropwise addition of 0.1 N NaOH in saline and volume adjusted by addition of saline in preparation for intraperitoneal (ip) dosing. […] Control treatments were always the vehicle solutions of the corresponding drugs.
The object recognition test was performed as described elsewhere (Ennaceur and Delacour [1988]; Akkerman et al. 2014). The apparatus consisted of a circular arena, 83 cm in diameter. Half of the 40-cm-high wall was made of gray polyvinyl chloride, the other half of transparent polyvinyl chloride. The light intensity was equal in the different parts of the apparatus, as fluorescent red tubes provided a constant illumination of about 20 lx on the floor of the apparatus. Two objects were placed in a symmetrical position at about 10 cm from the gray wall. Four different sets of objects were used. The different objects were (1) a cone consisting of a gray polyvinyl chloride base (maximal diameter 18 cm) with a collar on top made of brass (total height 16 cm), (2) a standard 1 L transparent glass bottle (diameter 10 cm, height 22 cm) filled with water, (3) a large metal cube (10.0 × 5.0 × 7.5 cm) with two holes (diameter 1.9 cm), and (4) a large aluminum cube with a tapering top (13.0 × 8.0 × 8.0 cm). The objects used in this study were carefully selected to be “novelty neutral,” that is to say the rats have no innate preference for one over the other. In all cases, objects were of sufficient size and weight that rats could not move the objects.
A testing session consisted of two trials. The duration of each trial was 3 min. During the first trial (T1), the apparatus contained two identical objects (samples). Rats were placed in the apparatus facing the wall at the middle of the front (transparent) segment. After the first exploration period, the rat was put back in its home cage. Subsequently, after a 24-h delay interval, the rat was put in the apparatus for the second trial (T2). The times spent in exploring each object during T1 and T2 were recorded manually using a personal computer.
Exploration was defined as follows: directing the nose to the object at a distance of no more than 2 cm and/or touching the object with the nose. Sitting on the object was not considered as exploratory behavior. In order to avoid the presence of olfactory cues, the objects were always thoroughly cleaned with a 70 % ethanol solution before each trial. All combinations and locations of objects were used in a balanced manner to reduce potential biases due to preferences for particular locations or objects.
During the first 2 weeks after animal arrival, the animals were handled daily. They were then adapted to the procedure over the period of 2 days by allowing them to explore the apparatus (without any objects) for 3 min twice each day. […] After this, the rats were assigned to treatment conditions in a balanced manner, thereby insuring an equal distribution of object combinations among the treatment conditions. […] In all experiments, a 24-h inter-trial interval was used. In all cases, the experimenter was unaware of the treatment conditions that were being tested.
The basic measure recorded was the time spent by each rat exploring an object during T1 and T2. The time spent in exploring the two identical samples was represented by “a1” and “a2.” The time spent in T2 in exploring the sample and new object was represented by “a” and “b,” respectively. The following variables were calculated: e1 = a1 + a2, e2 = a + b, and d2 = (b − a) / e2. The e1 and e2 are measures of the total exploration time of both objects during T1 and T2, respectively. Differences in exploration times between treatment conditions were analyzed using a t test or one-way ANOVA. […]

[7] = system: memory acquisition and retrieval in male Wistar rats; assay: Novel object recognition (NOR): suboptimal doses 2 h before T1 and T2; type: in vivo, rat
Experimental: as §1
The object recognition test was performed as described elsewhere (Ennaceur and Delacour [1988]; Akkerman et al. 2014). The apparatus consisted of a circular arena, 83 cm in diameter. Half of the 40-cm-high wall was made of gray polyvinyl chloride, the other half of transparent polyvinyl chloride. The light intensity was equal in the different parts of the apparatus, as fluorescent red tubes provided a constant illumination of about 20 lx on the floor of the apparatus. Two objects were placed in a symmetrical position at about 10 cm from the gray wall. Four different sets of objects were used. The different objects were (1) a cone consisting of a gray polyvinyl chloride base (maximal diameter 18 cm) with a collar on top made of brass (total height 16 cm), (2) a standard 1 L transparent glass bottle (diameter 10 cm, height 22 cm) filled with water, (3) a large metal cube (10.0 × 5.0 × 7.5 cm) with two holes (diameter 1.9 cm), and (4) a large aluminum cube with a tapering top (13.0 × 8.0 × 8.0 cm). The objects used in this study were carefully selected to be “novelty neutral,” that is to say the rats have no innate preference for one over the other. […]
A testing session consisted of two trials. […] The times spent in exploring each object during T1 and T2 were recorded manually using a personal computer. […]
The basic measure recorded was the time spent by each rat exploring an object during T1 and T2. […] The following variables were calculated: e1 = a1 + a2, e2 = a + b, and d2 = (b − a) / e2. […] Differences in exploration times between treatment conditions were analyzed using a t test or one-way ANOVA. […]

[8] = 0.3 mg/kg 2 h before T1 and 0.1 mg/kg 2 h before T2, po

T3 sequence (P25103 whole entry): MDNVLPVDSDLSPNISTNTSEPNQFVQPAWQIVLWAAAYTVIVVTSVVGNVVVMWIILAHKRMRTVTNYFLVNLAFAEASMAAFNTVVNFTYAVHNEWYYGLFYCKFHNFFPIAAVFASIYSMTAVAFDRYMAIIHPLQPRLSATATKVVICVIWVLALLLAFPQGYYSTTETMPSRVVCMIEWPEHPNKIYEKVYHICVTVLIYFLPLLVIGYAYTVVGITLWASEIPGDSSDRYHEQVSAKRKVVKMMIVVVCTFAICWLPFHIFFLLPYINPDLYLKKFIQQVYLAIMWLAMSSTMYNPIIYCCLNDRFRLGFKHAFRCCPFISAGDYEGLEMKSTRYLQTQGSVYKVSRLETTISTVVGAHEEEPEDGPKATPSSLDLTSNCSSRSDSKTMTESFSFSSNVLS
T2 sequence (Q01959 whole entry): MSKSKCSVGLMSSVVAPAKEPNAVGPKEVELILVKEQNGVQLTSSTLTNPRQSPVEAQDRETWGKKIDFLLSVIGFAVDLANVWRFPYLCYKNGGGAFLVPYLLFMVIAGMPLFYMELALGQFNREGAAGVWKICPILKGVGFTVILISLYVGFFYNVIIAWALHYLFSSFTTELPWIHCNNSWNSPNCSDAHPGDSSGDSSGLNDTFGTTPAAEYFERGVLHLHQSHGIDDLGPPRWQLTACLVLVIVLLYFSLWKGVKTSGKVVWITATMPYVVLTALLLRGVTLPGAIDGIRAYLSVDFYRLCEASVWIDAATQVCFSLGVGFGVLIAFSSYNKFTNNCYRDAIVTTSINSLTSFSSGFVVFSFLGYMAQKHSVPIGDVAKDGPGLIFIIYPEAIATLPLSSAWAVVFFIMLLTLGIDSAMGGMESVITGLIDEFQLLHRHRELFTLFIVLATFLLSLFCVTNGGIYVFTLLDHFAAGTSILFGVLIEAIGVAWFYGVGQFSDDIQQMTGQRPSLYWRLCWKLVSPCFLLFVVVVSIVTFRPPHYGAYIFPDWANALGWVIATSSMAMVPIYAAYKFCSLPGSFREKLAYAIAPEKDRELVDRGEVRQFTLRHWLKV

For `CN1C(=O)c2c(nn(Cc3ccc(-c4cccc(F)n4)cc3)c2Nc2ccccc2)N2C1=N[C@@H]1CCC[C@@H]12` [ITI-214, (6aR,9aS)-2-(4-(6-fluoropyridin-2-yl)benzyl)-5-methyl-3-(phenylamino)-5,6a,7,8,9,9a-hexahydrocyclopenta-[4,5]imidazo[1,2-a]pyrazolo[4,3-e]pyrimidin-4-(2H)-one phosphate salt], the “% Binding” value [1] was 64.65%, the “% Binding” value [2] was 58.70% and the “% Binding” value [3] was 40.90%. For the same compound, the “% Binding” value [4] was 34.94%, the “% Binding” value [5] was 30.93% and the “Exploration time e1 (T1)” value ([6]; 0.1 mg/kg po) was 28.38 (1.86) s. The “Exploration time e2 (T2)” value ([6]; 0.1 mg/kg po) was 27.33 (1.48) s, the “Exploration time e1 (T1)” value ([6]; 0.3 mg/kg po) was 27.55 (1.62) s and the “Exploration time e2 (T2)” value ([6]; 0.3 mg/kg po) was 26.10 (1.69) s. The “Exploration time e1 (T1)” value ([6]; 1 mg/kg po) was 27.97 (1.78) s, the “Exploration time e2 (T2)” value ([6]; 1 mg/kg po) was 29.38 (1.38) s and the “Exploration time e1 (T1)” value ([6]; 3 mg/kg po) was 27.28 (1.74) s. The “Exploration time e2 (T2)” value ([6]; 3 mg/kg po) was 28.73 (1.62) s, the “Exploration time e1 (T1)” value ([6]; 10 mg/kg po) was 26.21 (1.97) s and the “Exploration time e2 (T2)” value ([6]; 10 mg/kg po) was 28.15 (1.38) s. For the same compound, the “effect on exploratory behavior during T1 or T2” value ([6]; 0.1–10 mg/kg po 2 h before T1) was “no effect on exploratory behavior”, the “Exploration time e1 (T1)” value [7, 8] was 30.43 (2.16) s and the “Exploration time e2 (T2)” value [7, 8] was 28.78 (1.26) s. For the same compound, the “effect on discrimination behavior (d2), combined sub-effective doses” value ([7]; 0.3 mg/kg 2 h before T1 plus 0.1 mg/kg 2 h before T2, different from chance and vehicle, p < 0.001) was “full increase in discrimination behavior”.
